Results as given in US20040248257A1, “SPEX compositions and methods of use” (The Scripps Research Institute, priority 2003, published 2004).

How the values were obtained:
[1] = system: mSPEX mRNA expression; conditions: murine cells; 10 μM U0126; cultured DP thymocytes; one experiment
Procedure: (§1) The expression of mSPEX and hSPEX mRNAs is compared in cultured DP thymocytes in the presence or absence of stimulation with PMA and ionomycin and in the presence or absence of a MEK inhibitor (10 μM U0126).

[2] = system: hSPEX mRNA expression; conditions: human cells; 10 μM U0126; cultured DP thymocytes; one experiment
Procedure: as §1

N#CC(=C(/N)Sc1ccccc1N)/C(C#N)=C(\N)Sc1ccccc1N [U0126]
inhibition of the increase of SPEX mRNA expression observed with PMA and ionomycin stimulation [1]: approximately 70% | inhibition of the increase of SPEX mRNA expression observed with PMA and ionomycin stimulation [2]: approximately 70%
